Data on three compounds can be found in article PMC12387680, “Mohangic Acid H and Mohangiol: New p-Aminoacetophenone Derivatives from a Mudflat-Derived Streptomyces sp” (Marine Drugs, 2025).

The target in test [1] is T1, isocitrate lyase (ICL) (Candida albicans, UniProt Q9P8Q7).
T1 construct: gene ICL1; recombinant ICL
The test can be described thus: biochemical.

Test [2] deals with T2, E. coli.
T2 construct: ATCC 25922
The test can be described thus: microbe, parasite or virus in culture. The conditions noted are these: Escherichia coli, 24 h. Also noted: broth microdilution antibacterial MIC, growth inhibition. The protocol: (§1) Three species of Gram-positive bacteria (Staphylococcus aureus ATCC 25923, Enterococcus faecalis ATCC 19433, and Enterococcus faecium ATCC 19434) and three species of Gram-negative bacteria (Klebsiella pneumoniae ATCC 10031, Salmonella enterica ATCC 14028, and Escherichia coli ATCC 25922) as human pathogens were selected as test strains and prepared for the antibacterial activity assays. The test bacterial strains were cultured overnight in Mueller–Hinton broth (MHB) at 37 °C for human pathogens and in tryptic soy broth (TSB) at 28 °C for B. thuringiensis. The grown strains were harvested by using a centrifuge and washed twice with sterilized water. Ampicillin and tetracycline were used as positive controls, and dimethyl sulfoxide (DMSO) was used as a negative control. Each compound, including 1 and 2, was dissolved in DMSO and diluted with MHB or TSB to prepare serial two-fold dilutions (from 128 µg/mL to 0.015 µg/mL). For the antibacterial activity assay, 10 µL of suspensions containing 1 × 10^6 colony forming units (CFU)/mL of the test bacteria and 190 µL of MHB or TSB, which included the positive control compounds or test compounds, were added into each well of a 96-well plate (final concentration of test bacteria was 5 × 10^4 CFU/mL). Then, the plate was incubated at 37 °C or 28 °C for 24 h. […] The biological activities of mohangic acid H (1) and mohangiol (2) were evaluated in multiple ways. 1 and 2 were evaluated for inhibitory activities against pathogenic bacteria (Staphylococcus aureus ATCC 25923, Enterococcus faecalis ATCC 19433, Enterococcus faecium ATCC 19434, Salmonella enterica ATCC 14028, Escherichia coli ATCC 25922, Klebsiella pneumoniae ATCC 10031) and fungi (Candida albicans ATCC 10231, Aspergillus fumigatus HIC 6094, Trichophyton rubrum NBRC 9185, Trichophyton mentagrophytes IFM 40996) in broth microdilution MIC assays.

Test [3] has as its system T3, E. faecalis.
T3 construct: ATCC 19433
The test can be described thus: microbe, parasite or virus in culture. Also noted: broth microdilution antibacterial MIC, growth inhibition. The conditions noted are these: Enterococcus faecalis, 24 h. The protocol: as §1

For test [4], the system named is T4, E. faecium.
T4 construct: ATCC 19434
The test can be described thus: microbe, parasite or virus in culture. Also on record: broth microdilution antibacterial MIC, growth inhibition. The conditions noted are these: Enterococcus faecium, 24 h. The protocol:
as §1

Test [5] concerns T5, K. pneumonia.
T5 construct: ATCC 10031
The test can be described thus: microbe, parasite or virus in culture. The conditions noted are these: Klebsiella pneumoniae, 24 h. Also noted: broth microdilution antibacterial MIC, growth inhibition. The protocol: as §1

Test [6] deals with T6, S. aureus.
T6 construct: ATCC 25923
The test can be described thus: microbe, parasite or virus in culture. Also noted: broth microdilution antibacterial MIC, growth inhibition. The conditions noted are these: Staphylococcus aureus, 24 h. The protocol:
as §1

Test [7] concerns T7, S. enterica.
T7 construct: ATCC 14028
The test can be described thus: microbe, parasite or virus in culture. Also on record: broth microdilution antibacterial MIC, growth inhibition. The conditions noted are these: Salmonella enterica, 24 h. The protocol:
as §1

The test system of test [8] is T8, A. fumigatus.
T8 construct: HIC 6094
The test can be described thus: microbe, parasite or virus in culture. Also noted: broth microdilution antifungal MIC in RPMI 1640, growth inhibition. The conditions noted are these: Aspergillus fumigatus, 48 h. The protocol: (§2) Potato dextrose agar (PDA) was used to cultivate Candida albicans ATCC 10231. After incubation for 48 h at 28 °C, the yeast cells were harvested by centrifugation and washed twice with sterile distilled water. Aspergillus fumigatus HIC 6094, Trichophyton rubrum NBRC 9185, and Trichophyton mentagrophytes IFM 40,996 were also plated on PDA and incubated for 2 weeks at 28 °C. Spores were harvested and washed twice with sterile distilled water. Stock solutions of 1 and 2 were prepared in DMSO. Each stock solution was diluted with RPMI 1640 broth (Difco, Livonia, MI, USA) to give serial twofold dilutions in the range of 0.06–128 µg/mL. The final DMSO concentration was maintained at 1% by adding DMSO to the broth. Aliquots (10 µL) of the RPMI 1640 broth containing approximately 10^4 cells/mL were mixed with the test compound solutions in each well of a 96-well plate. The plates were incubated for 24 h (for C. albicans), 48 h (for A. fumigatus), and 96 h (for T. rubrum and T. mentagrophytes) at 37 °C. A culture with DMSO (1%) was used as a solvent control, and a culture supplemented with amphotericin B was used as a positive control. The biological activities of mohangic acid H (1) and mohangiol (2) were evaluated in multiple ways. 1 and 2 were evaluated for inhibitory activities against pathogenic bacteria (Staphylococcus aureus ATCC 25923, Enterococcus faecalis ATCC 19433, Enterococcus faecium ATCC 19434, Salmonella enterica ATCC 14028, Escherichia coli ATCC 25922, Klebsiella pneumoniae ATCC 10031) and fungi (Candida albicans ATCC 10231, Aspergillus fumigatus HIC 6094, Trichophyton rubrum NBRC 9185, Trichophyton mentagrophytes IFM 40996) in broth microdilution MIC assays.

In test [9] the test system is T9, C. albicans.
T9 construct: ATCC 10231
The test can be described thus: microbe, parasite or virus in culture. The conditions noted are these: Candida albicans, 24 h. Also noted: broth microdilution antifungal MIC in RPMI 1640, growth inhibition. The protocol:
as §2

In test [10] the test system is T10, T. mentagrophytes.
T10 construct: IFM 40996
The test can be described thus: microbe, parasite or virus in culture. Also on record: broth microdilution antifungal MIC in RPMI 1640, growth inhibition. The conditions noted are these: Trichophyton mentagrophytes, 96 h. The protocol:
as §2

For test [11], the system named is T11, T. rubrum.
T11 construct: NBRC 9185
The test can be described thus: microbe, parasite or virus in culture. Also on record: broth microdilution antifungal MIC in RPMI 1640, growth inhibition. The conditions noted are these: Trichophyton rubrum, 96 h. The protocol: as §2

The mark [12] stands for this setting: read-out: IC50 (μg/mL) (converted).

Where two headings read alike, the source gives them in different places. Where only a bound is given, the exact number is not on record here.

T1 sequence (Q9P8Q7 whole entry): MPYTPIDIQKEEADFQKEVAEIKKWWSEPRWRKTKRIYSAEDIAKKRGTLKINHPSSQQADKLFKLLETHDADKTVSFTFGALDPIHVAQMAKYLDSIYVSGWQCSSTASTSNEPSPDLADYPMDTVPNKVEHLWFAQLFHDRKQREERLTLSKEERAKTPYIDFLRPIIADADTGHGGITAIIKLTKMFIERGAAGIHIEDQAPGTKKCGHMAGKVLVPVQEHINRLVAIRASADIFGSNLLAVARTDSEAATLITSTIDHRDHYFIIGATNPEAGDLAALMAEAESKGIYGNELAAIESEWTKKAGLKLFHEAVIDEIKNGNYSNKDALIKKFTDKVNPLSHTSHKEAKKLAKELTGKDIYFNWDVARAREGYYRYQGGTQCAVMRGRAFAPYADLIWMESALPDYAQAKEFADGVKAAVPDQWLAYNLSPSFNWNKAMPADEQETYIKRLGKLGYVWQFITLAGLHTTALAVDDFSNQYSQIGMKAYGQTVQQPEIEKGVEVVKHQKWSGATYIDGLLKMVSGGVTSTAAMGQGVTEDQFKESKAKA

The compound `O=C(O)CC[N+](=O)[O-]` [3-nitropropionate, reference compound] showed an IC50 in test [1] of 126 µM.
With `CC(=O)Nc1ccc(C(=O)C[C@@H](O)[C@H](C)C[C@@H](C)[C@H](O)[C@H](C)/C=C/C=C/C(=O)O)cc1` [compound 1, Mohangic acid H], in [1] (setting [12]), the IC50 was 49.5 µM. Also, the MIC in test [2], in test [3], in [4], in [5], in [6] and in [7] was above 128 µM each time. Further, the MIC in test [8], in test [9], in test [10] and in [11] was above 128 µM in each case.
For `C[C@H](O)CC/C=C/C=C/[C@@H](C)[C@@H](O)[C@H](C)C[C@@H](C)[C@H](O)CC(=O)c1ccc(N)cc1` [compound 2, Mohangiol], the IC50 in test [1] (setting [12]) was 50.6 µM. Also, the MIC in test [2], in [3], in test [4], in test [5], in test [6] and in [7] was above 128 µM each time. For the same compound, the MIC in test [8], in test [9], in [10] and in [11] was above 128 µM throughout.
